Earlier results as cited in patent US20180153872A1, “HETEROARYL CARBONITRILES FOR THE TREATMENT OF DISEASE” (OPKO Health, Inc., priority 2015, published 2018).
pKi: −log10 of the molar value.

Target: NK1 receptor (Homo sapiens, UniProt P25103)
Conditions: Table I compounds; cited from earlier work

NK1 receptor, sequence (P25103 whole entry, species assumed): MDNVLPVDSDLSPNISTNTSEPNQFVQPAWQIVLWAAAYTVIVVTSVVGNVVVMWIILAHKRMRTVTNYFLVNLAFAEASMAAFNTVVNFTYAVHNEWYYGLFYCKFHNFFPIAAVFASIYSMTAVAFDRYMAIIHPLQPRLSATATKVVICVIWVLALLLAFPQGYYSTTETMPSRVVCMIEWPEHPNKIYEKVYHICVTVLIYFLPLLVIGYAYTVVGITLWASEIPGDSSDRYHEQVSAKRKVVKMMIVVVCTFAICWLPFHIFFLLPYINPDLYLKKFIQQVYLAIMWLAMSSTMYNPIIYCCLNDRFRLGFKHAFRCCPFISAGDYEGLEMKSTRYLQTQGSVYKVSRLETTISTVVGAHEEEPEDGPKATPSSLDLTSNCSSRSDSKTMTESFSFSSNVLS

SMILES	pKi
C[C@@H](OC[C@@]1(c2ccccc2)CCC(C(N)=O)(n2cnnc2)CN1)c1cc(C(F)(F)F)cc(C(F)(F)F)c1 (stereo partly drawn) [Compound 10]	10.00
CCC(=O)C1(n2cn[nH]c2=O)CC[C@@](CO[C@H](C)c2cc(C(F)(F)F)cc(C(F)(F)F)c2)(c2ccccc2)NC1 (stereo partly drawn) [Compound 19]	10.00
C[C@@H](OC[C@@]1(c2ccccc2)CCC(C#N)(N2CCOC2=O)CN1)c1cc(C(F)(F)F)cc(C(F)(F)F)c1 (stereo partly drawn) [Compound 2]	9.92
CC(=NO)C1(n2cn[nH]c2=O)CCC(COC(C)c2cc(C(F)(F)F)cc(C(F)(F)F)c2)(c2ccccc2)NC1 (stereo not drawn) [Compound 54]	9.92
C[C@@H](OC[C@@]1(c2ccccc2)CC[C@](CNS(C)(=O)=O)(n2cn[nH]c2=O)CN1)c1cc(C(F)(F)F)cc(C(F)(F)F)c1 [Compound 15]	9.89
C[C@@H](OC[C@@]1(c2ccccc2)CCC(C#N)(N2CCC2=O)CN1)c1cc(C(F)(F)F)cc(C(F)(F)F)c1 (stereo partly drawn) [Compound 9]	9.74
C[C@@H](OC[C@@]1(c2ccccc2)CCC(CO)(n2cnnc2)CN1)c1cc(C(F)(F)F)cc(C(F)(F)F)c1 (stereo partly drawn) [Compound 12]	10.30
C[C@@H](OC[C@@]1(c2ccccc2)CCC(CO)(n2cn[nH]c2=O)CN1)c1cc(C(F)(F)F)cc(C(F)(F)F)c1 (stereo partly drawn) [Compound 23]	9.92

Tested on: pruritus
Conditions: several patients with pruritic drug reactions to antineoplastic drugs; cited from earlier work

SMILES	pruritus on the visual analogue scale (VAS)
C[C@@H](O[C@H]1OCCN(Cc2n[nH]c(=O)[nH]2)[C@H]1c1ccc(F)cc1)c1cc(C(F)(F)F)cc(C(F)(F)F)c1 [aprepitant]	decrease in pruritus on the visual analogue scale
